Measured values: patent publication US20240058291A1, “COMPOSITION FOR CONTROLLING SUGAR, CONTAINING ATYPICAL PKC ACTIVATOR” (INDUSTRY-ACADEMIC COOPERATION FOUNDATION, YONSEI UNIVERSITY, priority 2021, published 2024)

Key:
db/db mice [1] = experiment: Immunohistochemical staining of PKC zeta in small intestine of diabetic model mice; format: in vivo; conditions: 0.5 mg/kg for 1 month
Method: After administration of prostratin (0.5 mg/kg) or vehicle to db/db mice for 1 month, the small intestine was harvested, and the duodenum, jejunum, and ileum were fixed with formalin, subjected to immunohistochemical staining with anti-PKC zeta antibody (Abcam, USA), and imaged with an optical microscope at 100× and 400× magnifications.

IEC-6 cells [2] = experiment: Western blot of GLUT transporters after treatment, IEC-6 cells; format: cell-based; conditions: for GLUT1 phosphorylation: 30, 100 and 300 nM, 30 minutes, Western blot; for expression of p-GLUT1 and GLUT1: compared to Na/K ATPase
Method: (§1) For culture of IEC-6 cells (ATCC CRL-1592) and IEC-18 cells (ATCC CRL-1589), which are intestinal epithelial cells, the cells were cultured using Dulbecco's modified Eagle medium (DMEM) supplemented with 10% fetal bovine serum (FBS) and penicillin-streptomycin at 37° C. in a humidified atmosphere containing 10% CO2 and 90% air, and were subcultured every 3 to 4 days. […] When the cell density reached 1.5×10^5 cells/cm^2 after 6 days, the cultures were collected and used. Prostratin was purchased from Sigma-Aldrich (Cat. No. P0077) and used. Ingenol was purchased from Sigma-Aldrich (Cat. No. SML1318) and used. IEC-6 cells and IEC-18 cells were treated with each of prostratin and ingenol at 30 nM, 100 nM, and 300 nM for 30 minutes, cell lysates were collected, and protein expression levels thereof were analyzed by Western blotting. Western blot analysis was performed as follows. Total cell protein lysates were prepared and subjected to Western blot analysis according to standard procedures. Briefly, cells were chilled on ice, washed twice with ice-cold phosphate-buffered saline, and lysed in buffer containing 1 mM. phenylmethylsulfonyl fluoride and lx protease inhibitor (Sigma-Aldrich). Protein concentration was measured with a Bradford assay kit (Bio-Rad, Hercules, CA, USA). Equal amounts of protein from the cell lysates were resolved by sodium dodecyl sulfate polyacrylamide gel electrophoresis and transferred to membranes which were then incubated with anti-PKCα (Cell Signaling Technology, USA), anti-PKCδ (Cell Signaling Technology, USA), anti-PKCζ (Cell Signaling Technology, USA), anti-p-GLUT1 (Abcam, GB), anti-GLUT1 (Abcam, GB) and anti-GLUT2 (Novus Biological, USA) as primary antibodies overnight at 4° C. The blots were washed 3 times with TBST (Tris-buffered saline containing 0.05% Tween 20) and then incubated with horseradish peroxidase (HRP)-conjugated secondary antibodies for 1 hour at 25° C. As the secondary antibodies, donkey anti-rabbit IgG-HRP antibody (1:5000, Santa Cruz) and donkey anti-mouse IgG-HRP antibody (1:5000, Santa Cruz) were used. Immunoreactivity was detected with SuperSignal West Pico Chemiluminescent Substrate (Thermo Fisher Scientific, MA, USA).

IEC-18 cells [3] = experiment: Western blot of GLUT transporters after treatment, IEC-18 cells; format: cell-based; conditions: for GLUT1 phosphorylation: 30, 100 and 300 nM, 30 minutes, Western blot; for expression of p-GLUT1 and GLUT1: compared to Na/K ATPase
Method: as §1

db/db mice [4] = experiment: 18FDG absorption and excretion in intestines of diabetic model mice; format: in vivo; conditions: 0.5 mg/kg for 1 month
Method: The intestines of db/db mice (Jackson Laboratory) to which 0.5 mg/kg of prostratin had been administered for 1 month were harvested and radiographed for 18FDG (fluorodeoxyglucose, DuChemBio). 18FDG was purchased from DuChemBio and 200 μCi was injected into each mouse via the tail vein. In addition, 18FDG in a fecal sample obtained by washing the harvested small intestine with 5 mL of PBS was measured, and 18FDG uptake of the duodenum, jejunum, and ileum of the small intestine was measured with a gamma counter.

db/db mice [5] = experiment: Body weight in diabetic model mice, daily intraperitoneal injection for 40 days; format: in vivo
Method: Each of prostratin (0.5 mg/kg) and ingenol (1 μg/kg) was intraperitoneally injected daily for 40 days into db/db mice (Jackson Laboratory), known as a representative diabetes model due to deficiency of the leptin receptor, and then the body weight of each mouse was measured.

IEC-6 cells [6] = experiment: Intracellular glucose (2-DG) uptake, IEC-6 cells; format: cell-based; conditions: 100 nM
Method: (§2) IEC-6 cells and IEC-18 cells were treated with each of prostratin and ingenol (100 nM) for 10 minutes, and then uptake of 2-deoxy-D-glucose (2-DG) in the collected cell lysates was analyzed. By measuring the glucose concentration, changes in glucose uptake (2-DG uptake) by treatment with each of prostratin and ingenol were determined. The amount of glucose was measured after treatment with each of prostratin and ingenol in a low-concentration glucose medium and serum-free DMEM for 24 hours. Glucose levels in the IEC-6 and IEC-18 cells were detected using a Glucose Assay Kit (Cayman Chemical) according to the manufacturer's instructions. Absorbance signals were measured with a Gen5 spectrophotometer (BioTek, Winooski, VT, USA).

IEC-6 cells [7] = experiment: Glucose uptake with and without PKC zeta inhibitor ZIP, IEC-6 cells; format: cell-based; conditions: 100 nM
C57BL6 mice [8] = experiment: IP glucose tolerance test after 2 weeks of administration by osmotic pump; format: in vivo; conditions: 0.5 mg/kg and 1 mg/kg for 2 weeks, 2 g/kg glucose
Method: Prostratin was administered to C57BL6 mice at concentrations of 0 mg/kg, 0.5 mg/kg, and 1 mg/kg for 2 weeks using an osmotic pump, followed by fasting for 12 hours. Then, 2 g of glucose per kg of mouse (2 g/kg glucose) was diluted in physiological saline and intraperitoneally administered to each mouse. Thereafter, an IP glucose tolerance test was performed at 15 minutes, 30 minutes, 60 minutes, 90 minutes, and 120 minutes.

IEC-6 cell line [9] = experiment: 2DG uptake after PKC siRNA transfection; format: cell-based; conditions: prostratin 1 μM or ingenol 100 nM
Method: In order to identify which PKC subtypes induce increased glucose uptake (2DG uptake) in IEC cells by treatment with each of prostratin and ingenol, the IEC-6 cell line was transfected with siRNA for each of conventional PKC (PKCα), novel PKC ([…]), and atypical PKCs (PKCζ and […]) as described in Example 7. After 48 hours, the cells were treated with prostratin (1 μM) or ingenol (100 nM), and 2DG uptake therein was analyzed.

human pancreatic tumors = conditions: orally administered; cited from earlier work
IEC-18 cells [10] = experiment: Intracellular glucose (2-DG) uptake, IEC-18 cells; format: cell-based; conditions: 100 nM
Method: as §2

IEC-18 cells [11] = experiment: Glucose uptake with and without PKC zeta inhibitor ZIP, IEC-18 cells; format: cell-based; conditions: 100 nM
db/db mice [12] = experiment: Electron microscopy of apical membrane of jejunum lumen of diabetic model mice; format: in vivo; conditions: 0.5 mg/kg for 1 month, electron microscope
IEC-18 cells [13] = experiment: Western blot of PKC and GLUT1 activation over time, IEC-18 cells; format: cell-based; conditions: prostratin 2 μM; for activities of PKC zeta and GLUT1: ingenol 0.1 μM, 0, 15 and 60 minutes
Method: After treatment of IEC-18 cells with each of prostratin (2 μM) and ingenol (0.1 μM) for 0, 15, and 60 minutes, the expression of PKC and GLUT1 proteins was analyzed by Western blotting.

C57BL6 mice [14] = experiment: IP glucose tolerance test after single subcutaneous injection; format: in vivo; conditions: 2 g/kg glucose
Method: After 12 C57BL6 mice were fasted for 12 hours, fasting blood glucose was measured by performing an intraperitoneal glucose test. Thereafter, ingenol (4 μg/kg) and prostratin (1 mg/kg) was injected subcutaneously once into the ingenol-administered group (4 mice) and the prostratin-administered group, respectively, and 2 g of glucose per kg of mouse (2 g/kg glucose) was diluted in physiological saline and intraperitoneally administered to each mouse. Thereafter, an IP glucose tolerance test was performed at 15 minutes, 30 minutes, 60 minutes, 90 minutes, and 120 minutes.

db/db mice [15] = experiment: Intraperitoneal glucose tolerance test (IPGTT) in diabetic model mice on day 17; format: in vivo
Method: Each of prostratin (0.5 mg/kg) and ingenol (1 μg/kg) was intraperitoneally injected daily for 40 days into db/db mice (Jackson Laboratory), known as a representative diabetes model due to deficiency of the leptin receptor, and then the body weight of each mouse was measured. On day 17 after drug administration, an intraperitoneal glucose tolerance test (IPGTT) was performed. […] In the group to which 1 μg/kg of ingenol was administered, the glucose improvement effect appeared at 240 minutes after glucose administration.

IEC-6 cell line [16] = experiment: Western blot of p-GLUT1 after PKC siRNA transfection and prostratin treatment; format: cell-based; conditions: prostratin 1 μM
Method: To identify which PKC subtypes induce GLUT1 activation by each of prostratin and ingenol, the IEC-6 cell line was transfected with 50 nM of siRNA for each of conventional PKC (PKCα), novel PKC ([…]), and atypical PKCs (PKCζ and […]) using RNAiMax (Invitrogen). After 48 hours, the cells were treated with prostratin (1 μM), and total protein was extracted and subjected to Western blotting. The siRNA sequences used are as follows.

IEC-18 cells [17] = experiment: Western blot of PKC zeta, p-GLUT1 and GLUT1 with ingenol, IEC-18 cells; format: cell-based; conditions: ingenol 0.1 μM, vs empty vector negative control
Method: (§3) Transfected cell lines were generated by transfection such that PKC zeta was transiently overexpressed in IEC-6 cells, IEC-18 cells, and HEK293 (ATCC CRL-1573) cells. A rat PKC zeta-expressing plasmid (Korea Gene Bank) was subcloned into pCDNA3.1 (Addgene, USA). […] Cells were transfected with the expression plasmid using Polyjet transfection reagent (SignaGen) according to the manufacturer's instructions. Transfected cells were cultured for 48 hours at 37° C. before lysis and treated with ingenol (0.1 μM). Cell lysates were collected for the empty vector-infected cell group as a control group, the PKC zeta-transfected cell group, the wild-type cell group treated with ingenol, and the transfected cell group treated with ingenol, and subjected to Western blotting. In Western blotting, Na/K ATPase was used as a membrane loading control.

IEC-6 cells [18] = experiment: Western blot of PKC zeta, p-GLUT1 and GLUT1 with ingenol, IEC-6 cells; format: cell-based; conditions: ingenol 0.1 μM, vs empty vector negative control
Method: as §3

HEK293 = experiment: Western blot of PKC zeta, p-GLUT1 and GLUT1 with ingenol, HEK293 cells; format: cell-based; conditions: vs empty vector negative control
Method: as §3

[19] = atypical PKC (PKCζ and PKC↓)-knockdown group

SMILES: CC(=O)O[C@@]12C[C@@H](C)[C@@]3(O)[C@@H](C=C(CO)C[C@]4(O)C(=O)C(C)=C[C@@H]34)[C@@H]1C2(C)C [prostratin]
- PKC zeta staining in the duodenum vs vehicle (db/db mice [1]): no significant difference
- location of PKC zeta in the jejunum and ileum (db/db mice [1]): tended to be concentrated in the apical membrane of the lumen
- GLUT1 phosphorylation (IEC-6 cells [2]): promoted
- expression of p-GLUT1 and GLUT1 (IEC-6 cells [2]): increased
- GLUT1 phosphorylation (IEC-18 cells [3]): promoted
- expression of p-GLUT1 and GLUT1 (IEC-18 cells [3]): increased
- glucose absorption in duodenum, jejunum and ileum (18FDG, gamma counter) (db/db mice [4]): more than doubled
- glucose absorption in the small intestine (18FDG radiographs) vs vehicle group (db/db mice [4]): significantly higher
- glucose excretion in the fecal samples (18FDG) (db/db mice [4]): higher
- weight loss compared to vehicle group (db/db mice [5]; prostratin 0.5 mg/kg i.p. daily, on and after day 11): showed statistical significance
- intracellular glucose (2-DG) uptake (IEC-6 cells [6]): increased
- 6-phosphate glucose in the cells (IEC-6 cells [7]): increased
- area values under the glucose change curve for 2 hours (C57BL6 mice [8]): improved
- 2DG uptake (IEC-6 cell line [9]; [19]): not increased
- 2DG uptake (IEC-6 cell line [9]; negative control group (siNeg)): increased
- effect on human pancreatic tumors (human pancreatic tumors): inhibited
- intracellular glucose (2-DG) uptake (IEC-18 cells [10]): increased
- 6-phosphate glucose in the cells (IEC-18 cells [11]): increased
- glycocalyx near the microvilli of the jejunum vs vehicle (db/db mice [12]): secreted more
- number of mitochondria in the small intestine cells (db/db mice [12]): increased
- translocation of PKC and GLUT1 to the cell membrane, prostratin compared with ingenol (IEC-18 cells [13]; ingenol 0.1 μM): more rapidly translocated
- activities of PKC zeta and GLUT1 (IEC-18 cells [13]): increased
- glucose metabolism (IP glucose tolerance test) compared to Vehicle (C57BL6 mice [14]; prostratin 1 mg/kg subcutaneously once, at 30 and 60 minutes): significantly improved
- glucose improvement (IPGTT) vs vehicle group (db/db mice [15]; prostratin 0.5 mg/kg, entire period of 30 to 240 minutes): superior to that in the control group
- expression of GLUT1 (p-GLUT1) (IEC-6 cell line [16]; negative control group (siNeg)): increased
- expression of GLUT1 (p-GLUT1) (IEC-6 cell line [16]; siRNA for atypical PKCs (PKCζ and PKC↓)): did not increase

SMILES: C/C=C(/C)C(=O)O[C@H]1C(C)=C[C@]23C(=O)[C@@H](C=C(CO)[C@@H](O)[C@]12O)[C@H]1[C@@H](C[C@H]3C)C1(C)C [ingenol-3-angelate]
- GLUT1 phosphorylation (IEC-6 cells [2]): promoted
- expression of p-GLUT1 and GLUT1 (IEC-6 cells [2]): increased
- GLUT1 phosphorylation (IEC-18 cells [3]): promoted
- expression of p-GLUT1 and GLUT1 (IEC-18 cells [3]): increased
- weight loss (db/db mice [5]; ingenol 1 μg/kg i.p. daily, increased to 2 μg/kg on day 28, day 30): showed statistical significance
- intracellular glucose (2-DG) uptake (IEC-6 cells [6]): increased
- 6-phosphate glucose in the cells (IEC-6 cells [7]): increased
- GLUT1 translocation (IEC-18 cells [17]): translocated
- PKC zeta activation and translocation to the cell membrane (IEC-18 cells [17]): activated and translocated to the cell membrane
- 2DG uptake (IEC-6 cell line [9]; [19]): not increased
- 2DG uptake (IEC-6 cell line [9]; negative control group (siNeg)): increased
- GLUT1 translocation (IEC-6 cells [18]): translocated
- PKC zeta activation and translocation to the cell membrane (IEC-6 cells [18]): activated and translocated to the cell membrane
- intracellular glucose (2-DG) uptake (IEC-18 cells [10]): increased
- 6-phosphate glucose in the cells (IEC-18 cells [11]): increased
- activities of PKC zeta and GLUT1 (IEC-18 cells [13]): increased
- glucose metabolism (IP glucose tolerance test) compared to negative control (C57BL6 mice [14]; ingenol 4 μg/kg subcutaneously once): improved
- glucose improvement effect (IPGTT) (db/db mice [15]; ingenol 1 μg/kg, at 240 minutes after glucose administration): appeared
- GLUT1 translocation (HEK293): translocated
- PKC zeta activation and translocation to the cell membrane (HEK293): activated and translocated to the cell membrane
